From patent US5892113A, “Hydroxyethyl aminimides” (priority 1997, dated 1999)

Biological target: T1, HIV-1 protease (HIV-1 M:B_ARV2/SF2, UniProt P03369, C557X/C585X)
T1 construct: aminobutyric acid at 67 and 95, thioester at 51-52; NovaBiochem kit
Experiment: Fluorometric HIV-1 protease inhibition assay (NovaBiochem kit, fluorogenic substrate)
Type: biochemical
Protocol: The inhibition constant (Ki) of compound Ia is determined using HIV-1 protease kit supplied by NovaBiochem (cat. #10-39-0001, which supplies a solid phase synthesized analog of the protease, incorporating the unnatural residue aminobutyric acid in place of both cysteine residues 67 and 95, along with a thioester linkage in place of the normal peptide bond between residues 51-52). A fluorometric assay is performed using a fluorogenic substrate supplied by NovaBiochem (cat. #05-23-5216, Abz-Thr-Ile-Nle-Phe(NO2)-Gln-Arg-NH2). Initial rates of substrate hydrolysis are determined by following the increase in the fluorescence emission at 420 nm (excitation is at 325 nm) as the substrate is digested by the protease. The initial rates of substrate cleavage is determined in the absence and presence of compound Ia (up to a concentration of Ia=500 nM).

CC(C)(C)OC(=O)N[C@@H](Cc1ccccc1)[C@@H](O)C[N+](C)(Cc1ccccc1)[N-]C(=O)c1ccccc1 (single isomer, unassigned) [Ia]
mode of inhibition (Lineweaver-Burk analysis) (initial rates of substrate cleavage in absence and presence of Ia (up to 500 nM)): classical competitive inhibition
Ki (read-out: inhibition constant (Ki), synthetic HIV-1 protease analog (NovaBiochem), substrate Abz-Thr-Ile-Nle-Phe(NO2)-Gln-Arg-NH2, replot of Lineweaver-Burk slopes, Ia up to 500 nM): 137 nM
